Measured values from US20230047208A1, “RNA Splicing Modulation” (The General Hospital Corporation, priority 2020, published 2023).

Tested on: wildtype (WT) human fibroblast cell lines
Assay: Transcriptome-wide splicing by RNA sequencing (RNASeq), exon triplet PSI change;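 for Effect: six WT fibroblast lines treated seven days versus DMSO vehicle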;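 for T-PSI: T-PSI is average treated PSI after seven days of treatment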
Assay type: cell-based
Set-up: key to Effect: Exclusion; Inclusion; Unchanged
From the text: FIG. 2A provides a representation of an exon triplet. Exon U is upstream of Exon X, which is upstream of Exon D. R1, R2 and R3 represent RNA sequencing (RNASeq) reads spanning the regions between two adjacent exons. UI1, I1X, XI2 and I2D are four regions flanking the four splice sites of the exon-triplet. Each flanking region consists of 25 exonic base pairs and 75 intronic base pairs.
FIG. 2B provides a volcano plot showing the ψ (PSI: Percent Spliced-In) changes in splicing after treatment with Compound (I). Each dot represents one of the 161,097 expressed exon triplets in human fibroblasts. The x axis represents the ψ changes after treatment and the y axis represents the False Discovery Rate (FDR) (log 10 transformed). […] The horizontal dashed line indicates an FDR of 0.1. The dots on the right side of the right vertical dashed line and above the horizontal dashed line represent the exon-triplets with an increase for Exon X inclusion (Δψ≥0.1 and FDR<0.1) while the dots on left side of the left vertical dashed line and above the horizontal dashed line represent an increase for Exon X exclusion (Δψ≤−0.1 and FDR<0.1). Black dots in-between the two vertical dashed lines represent exon-triplets unchanged from the treatment.
In some aspects, analysis is performed on data derived from the assay to measure the magnitude of splicing to determine the amount of exons spliced into an mRNA transcript that is produced in the presence of Compound (I) relative to the amount in the absence of Compound (I) or presence of a negative control. In a preferred aspect, the method utilized is calculation of change in Percent Spliced In (ΔPSI). […] The ΔPSI value is derived from the formula: […]
The values for “a” and “b” represent the number of reads supporting the probability for potential inclusion or exclusion of an exon in an RNA transcript. The “a” value is derived from the number of reads within an exon triplet covering, in 5′ to 3′ order: the last few bases (>1 nucleotide) of an upstream exon operably linked to the first few bases (>1 nucleotide) of a middle exon. The “b” value is derived from the number of reads within an exon triplet covering, in 5′ to 3′ order: the last few bases (>1 nucleotide) of the middle exon operably linked to the first few bases (>1 nucleotide) of a downstream exon. The number of reads will indicate whether the splice junction of a middle exon has been identified as potentially having a CNN Motif(s) by the CNN Model described herein, wherein the inclusion or exclusion of the middle exon may be modulated in the presence of Compound (I) to produce one or more mature RNA isoforms from the gene transcript. The value for “c” represents the number of reads supporting the exclusion of the middle exon.
The effect on splicing modulation and corresponding splice differences toward exon inclusion or exclusion was determined by counting the RNASeq reads covering two splice junctions of exon triplets (three consecutive exons: Exon U, Exon X, Exon D) and the corresponding intervening introns, then comparing the change in Percent Spliced In (ΔPSI or Δψ) of the middle exon (Exon X) after treatment (as shown in FIG. 2A)^52,53. 934 exon triplets were identified showing differential middle exon inclusion or exclusion in response to Compound (I) treatment. Of these, 254 were exon inclusion events (Δψ≥0.1 and FDR<0.1) and 680 were exon exclusion events (Δψ≤−0.1 and FDR<0.1) (as shown in FIG. 2B). […] The splicing results were evaluated by RT-PCR in independent replicate experiments, confirming all the calculated Δψ values. […]

[1] = NSMCE2 Exon 126168242-126168340

Q: How did the Effect (NIN Exon 51233025-51233114) turn out when `Clc1nc(NCc2ccncc2)c2cc[nH]c2n1` [Compound (I), 2-chloro-N-(pyridin-4-ylmethyl)-7H-pyrrolo[2,3-d]pyrimidin-4-amine] was run?
A: Unc

Q: And the T-PSI (NIN Exon 51233025-51233114)?
A: 0.896

Q: And the ΔPSI (NIN Exon 51233025-51233114)?
A: 0.008

Q: And the Effect (NIPA2 Exon 23027801-23027922)?
A: Exc

Q: What about the T-PSI (NIPA2 Exon 23027801-23027922) of the same compound?
A: 0.326

Q: What about the ΔPSI (NIPA2 Exon 23027801-23027922) of the same compound?
A: −0.185

Q: And the Effect (NIPA2 Exon 23033278-23033413)?
A: Exc

Q: And the T-PSI (NIPA2 Exon 23033278-23033413)?
A: 0.608

Q: And the ΔPSI (NIPA2 Exon 23033278-23033413)?
A: −0.163

Q: What about the Effect (NLRC5 Exon 57110731-57110814) of the same compound?
A: Exc

Q: And the T-PSI (NLRC5 Exon 57110731-57110814)?
A: 0.857

Q: And the ΔPSI (NLRC5 Exon 57110731-57110814)?
A: −0.122

Q: What about the Effect (NLRX1 Exon 119043065-119043134) of the same compound?
A: Exc

Q: What about the T-PSI (NLRX1 Exon 119043065-119043134) of the same compound?
A: 0.742

Q: And the ΔPSI (NLRX1 Exon 119043065-119043134)?
A: −0.143

Q: And the Effect (NPEPPS Exon 45654447-45654526)?
A: Inc

Q: And the T-PSI (NPEPPS Exon 45654447-45654526)?
A: 0.172

Q: What about the ΔPSI (NPEPPS Exon 45654447-45654526) of the same compound?
A: 0.135

Q: What about the Effect (NPR2 Exon 35802729-35802800) of the same compound?
A: Exc

Q: What about the T-PSI (NPR2 Exon 35802729-35802800) of the same compound?
A: 0.878

Q: And the ΔPSI (NPR2 Exon 35802729-35802800)?
A: −0.101

Q: And the Effect (NPRL3 Exon 167300-167374)?
A: Exc

Q: What about the T-PSI (NPRL3 Exon 167300-167374) of the same compound?
A: 0.697

Q: And the ΔPSI (NPRL3 Exon 167300-167374)?
A: −0.155

Q: And the Effect (NPRL3 Exon 174936-175072)?
A: Unc

Q: What about the T-PSI (NPRL3 Exon 174936-175072) of the same compound?
A: 0.206

Q: And the ΔPSI (NPRL3 Exon 174936-175072)?
A: 0.006

Q: And the Effect (NPRL3 Exon 180521-180590)?
A: Unc

Q: What about the T-PSI (NPRL3 Exon 180521-180590) of the same compound?
A: 0.858

Q: What about the ΔPSI (NPRL3 Exon 180521-180590) of the same compound?
A: 0.003

Q: And the Effect (NRG1 Exon 32620736-32620877)?
A: Inc

Q: What about the T-PSI (NRG1 Exon 32620736-32620877) of the same compound?
A: 0.510

Q: What about the ΔPSI (NRG1 Exon 32620736-32620877) of the same compound?
A: 0.182

Q: What about the Effect (NSFL1C Exon 1436359-1436364) of the same compound?
A: Exc

Q: What about the T-PSI (NSFL1C Exon 1436359-1436364) of the same compound?
A: 0.345

Q: And the ΔPSI (NSFL1C Exon 1436359-1436364)?
A: −0.153

Q: And the Effect (NSFL1C Exon 1436359-1436515)?
A: Exc

Q: What about the T-PSI (NSFL1C Exon 1436359-1436515) of the same compound?
A: 0.214

Q: And the ΔPSI (NSFL1C Exon 1436359-1436515)?
A: −0.123

Q: And the Effect [1]?
A: Inc

Q: And the T-PSI [1]?
A: 0.162

Q: What about the ΔPSI [1] of the same compound?
A: 0.133

Q: And the Effect (NSUN4 Exon 46812593-46812747)?
A: Exc

Q: And the T-PSI (NSUN4 Exon 46812593-46812747)?
A: 0.817

Q: What about the ΔPSI (NSUN4 Exon 46812593-46812747) of the same compound?
A: −0.124

Q: What about the Effect (NT5C2 Exon 104871502-104871562) of the same compound?
A: Exc

Q: And the T-PSI (NT5C2 Exon 104871502-104871562)?
A: 0.351

Q: And the ΔPSI (NT5C2 Exon 104871502-104871562)?
A: −0.306

Q: What about the Effect (NTMT1 Exon 132394929-132395080) of the same compound?
A: Unc

Q: What about the T-PSI (NTMT1 Exon 132394929-132395080) of the same compound?
A: 0.828

Q: What about the ΔPSI (NTMT1 Exon 132394929-132395080) of the same compound?
A: −0.009

Q: What about the Effect (NTPCR Exon 233091303-233091465) of the same compound?
A: Unc

Q: And the T-PSI (NTPCR Exon 233091303-233091465)?
A: 0.785

Q: What about the ΔPSI (NTPCR Exon 233091303-233091465) of the same compound?
A: 0.009

Q: What about the Effect (NUB1 Exon 151046159-151046326) of the same compound?
A: Exc

Q: And the T-PSI (NUB1 Exon 151046159-151046326)?
A: 0.858

Q: And the ΔPSI (NUB1 Exon 151046159-151046326)?
A: −0.126

Q: And the Effect (NUBP2 Exon 1836758-1836956)?
A: Unc

Q: What about the T-PSI (NUBP2 Exon 1836758-1836956) of the same compound?
A: 0.575

Q: What about the ΔPSI (NUBP2 Exon 1836758-1836956) of the same compound?
A: 0.006

Q: What about the Effect (NUMB Exon 73833605-73833689) of the same compound?
A: Unc

Q: What about the T-PSI (NUMB Exon 73833605-73833689) of the same compound?
A: 0.697

Q: And the ΔPSI (NUMB Exon 73833605-73833689)?
A: −0.003

Q: What about the Effect (NUP43 Exon 150059779-150059914) of the same compound?
A: Exc

Q: And the T-PSI (NUP43 Exon 150059779-150059914)?
A: 0.865

Q: And the ΔPSI (NUP43 Exon 150059779-150059914)?
A: −0.118

Q: And the Effect (NUP62 Exon 50430951-50431105)?
A: Inc

Q: And the T-PSI (NUP62 Exon 50430951-50431105)?
A: 0.787

Q: What about the ΔPSI (NUP62 Exon 50430951-50431105) of the same compound?
A: 0.124

Q: And the Effect (NUP98 Exon 3707294-3707424)?
A: Unc

Q: What about the T-PSI (NUP98 Exon 3707294-3707424) of the same compound?
A: 0.862

Q: What about the ΔPSI (NUP98 Exon 3707294-3707424) of the same compound?
A: −0.009

Q: What about the Effect (NUPL2 Exon 23235458-23235534) of the same compound?
A: Exc

Q: And the T-PSI (NUPL2 Exon 23235458-23235534)?
A: 0.602

Q: What about the ΔPSI (NUPL2 Exon 23235458-23235534) of the same compound?
A: −0.244

Q: What about the Effect (NUTF2 Exon 67881181-67881359) of the same compound?
A: Unc
